Measured values published in patent US10259810B2, “N-sulfonylated pyrazolo[3,4-b]pyridin-6-carboxamides and method of use” (AbbVie S.à.r.l., priority 2015, dated 2019).
Where two headings read alike, the source gives them in different places.

Key:
Format in all cases: cell-based
[1] = target: T1, ΔF508-CFTR (Homo sapiens, UniProt P13569, DEL508-508); experiment: CFTR cell surface levels using HRP-tagged ΔF508-CFTR expressing CFBE cells, in the presence of a co-corrector
T1 construct: host or cells: CFBE41o-, doxycycline-inducible
In short: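 Chemiluminescent read-out of surface HRP (15 min, dark) after PBS washes. Activity is normalized as 100×(sample−DMSO)/(3 μM co-corrector alone−DMSO).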

[2] = target: T1, ΔF508-CFTR; experiment: CFTR cell surface levels using HRP-tagged ΔF508-CFTR expressing CFBE cells, intrinsic corrector capacity; parameters: % Activation: concentration or dose not given beside the values
In short: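 Surface ΔF508-CFTR was measured as HRP chemiluminescence from an extracellular-loop-4 tag, expressed as percent activity between DMSO and a […] corrector control.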

[3] = target: T2, CFTR ΔF508 (Homo sapiens, UniProt P13569, DEL508-508); experiment: Chronic TECC assay, primary bronchial epithelial cells of CF patients homozygous for CFTR ΔF508 (corrector, co-corrector and potentiator); conditions: for % Activity at 1 μM (AUC**) / % Activity at 1 μM (Ieq*): test compound at 1 μM; for % Activity at 3 μM (AUC**): test compound at 3 μM
T2 construct: bronchial epithelial cells isolated from CF patients homozygous for the CFTR ΔF508 mutation; McGill University; Asterand; University of North Carolina hAEC-CF; host or cells: primary human bronchial epithelial cells from CF patients homozygous for ΔF508, differentiated at air-liquid interface
In short: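 Primary bronchial epithelial cells from ΔF508-homozygous CF patients on collagen IV-coated Transwells were chronically treated with test compound plus corrector and potentiator, which were re-added before recording. Ieq was derived from PD and Rt in NaCl-Ringer, pH 7.4, at 37° C, with apical amiloride and bilateral forskolin, recorded every 2 min over 20 min. Ieq increase was normalized to controls, and EC50 was taken from per-well concentrations.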

[4] = HRP-tagged ΔF508-CFTR CFBE cells, in the presence of 3 μM co-corrector
[5] = HRP-tagged ΔF508-CFTR CFBE cells, in the presence of 3 μM co-corrector, read-out: EC50
[6] = HRP-tagged ΔF508-CFTR expressing CFBE41o- cells, compound alone (intrinsic corrector capacity), 20 hours at 33° C.
[7] = HRP-tagged ΔF508-CFTR expressing CFBE41o- cells, compound alone (intrinsic corrector capacity), 20 hours at 33° C., read-out: EC50
[8] = chronic TECC, AUC = full area under the curve upon forskolin stimulation
[9] = chronic TECC, AUC = full area under the curve upon forskolin stimulation, read-out: EC50 (nM) (AUC**)
[10] = chronic TECC, Ieq = calculations based on the maximum current, read-out: EC50 (nM) (Ieq*)
[11] = chronic TECC, Ieq = calculations based on the maximum current

T1 sequence (P13569 with tags, fused parts or gaps DEL508-508): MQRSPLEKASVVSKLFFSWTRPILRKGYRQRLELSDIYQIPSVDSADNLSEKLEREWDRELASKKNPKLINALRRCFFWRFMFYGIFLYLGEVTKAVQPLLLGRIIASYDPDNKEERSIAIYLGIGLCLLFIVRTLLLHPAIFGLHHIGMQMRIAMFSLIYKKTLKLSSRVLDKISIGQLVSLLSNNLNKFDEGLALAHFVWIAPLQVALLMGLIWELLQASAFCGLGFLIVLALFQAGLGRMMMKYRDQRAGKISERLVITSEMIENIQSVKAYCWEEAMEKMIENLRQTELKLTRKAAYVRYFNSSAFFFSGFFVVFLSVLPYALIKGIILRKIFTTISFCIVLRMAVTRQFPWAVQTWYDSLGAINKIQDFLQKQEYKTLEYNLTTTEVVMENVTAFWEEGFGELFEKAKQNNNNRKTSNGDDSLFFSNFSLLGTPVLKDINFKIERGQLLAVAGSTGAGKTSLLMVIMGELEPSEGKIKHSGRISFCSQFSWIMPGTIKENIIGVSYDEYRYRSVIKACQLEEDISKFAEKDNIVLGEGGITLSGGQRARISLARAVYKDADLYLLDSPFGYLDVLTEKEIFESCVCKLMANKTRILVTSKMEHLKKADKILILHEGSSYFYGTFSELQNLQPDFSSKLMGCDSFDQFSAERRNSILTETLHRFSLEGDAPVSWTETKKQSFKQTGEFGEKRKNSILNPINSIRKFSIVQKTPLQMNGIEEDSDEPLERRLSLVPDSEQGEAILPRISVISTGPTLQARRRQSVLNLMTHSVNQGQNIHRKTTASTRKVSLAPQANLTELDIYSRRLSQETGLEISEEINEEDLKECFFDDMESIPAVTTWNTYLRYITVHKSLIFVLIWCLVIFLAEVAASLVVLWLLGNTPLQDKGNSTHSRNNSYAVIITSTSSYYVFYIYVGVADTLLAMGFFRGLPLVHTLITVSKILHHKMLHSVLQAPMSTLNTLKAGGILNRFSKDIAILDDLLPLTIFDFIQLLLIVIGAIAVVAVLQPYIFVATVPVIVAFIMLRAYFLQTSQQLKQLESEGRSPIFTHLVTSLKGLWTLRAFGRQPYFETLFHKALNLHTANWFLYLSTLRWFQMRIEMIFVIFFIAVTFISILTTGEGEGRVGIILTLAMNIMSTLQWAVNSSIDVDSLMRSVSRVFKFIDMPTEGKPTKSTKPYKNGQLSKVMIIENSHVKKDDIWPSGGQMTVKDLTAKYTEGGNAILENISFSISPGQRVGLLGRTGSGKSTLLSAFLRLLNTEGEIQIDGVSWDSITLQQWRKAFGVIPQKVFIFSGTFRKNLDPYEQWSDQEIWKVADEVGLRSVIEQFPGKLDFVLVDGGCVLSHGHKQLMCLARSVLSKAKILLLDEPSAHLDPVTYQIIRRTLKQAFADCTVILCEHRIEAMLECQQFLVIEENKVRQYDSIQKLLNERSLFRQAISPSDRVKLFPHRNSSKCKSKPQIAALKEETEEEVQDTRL
T2 sequence (P13569 with tags, fused parts or gaps DEL508-508): as above

Compound | % Activation [1, 4] | EC50 [1, 5] | % Activation [2, 6] | EC50 [2, 7] | % Activity at 1 μM (AUC**) [3, 8] | EC50 [3, 9] | EC50 [1] | EC50 [2] | EC50 [3] | EC50 [3, 10] | % Activity at 1 μM (Ieq*) [3, 11] | % Activity at 3 μM (AUC**) [3, 8]
COCC1CCN(c2cc(C(=O)NS(=O)(=O)CC3COCCO3)nc3c2c(C2CCC2)nn3-c2ccccc2)CC1 (centres unmarked) [Compound 417, 3-cyclobutyl-N-[(1,4-dioxan-2-yl)methanesulfonyl]-4-[4-(methoxymethyl)piperidin-1-yl]-1-phenyl-1H-pyrazolo[3,4-b]pyridine-6-carboxamide] | 539.75% | 91.9 nM | 307.45% | 190 nM | 256.6667% |  |  |  |  |  |  | 
COCC1CN(C2CCN(c3cc(C(=O)NS(=O)(=O)N(C)C)nc4c3c(C3CCC3)nn4-c3ccc(F)cc3)CC2)CCO1 (centres unmarked) [Compound 379, 3-cyclobutyl-N-(dimethylsulfamoyl)-1-(4-fluorophenyl)-4-{4-[2-(methoxymethyl)morpholin-4-yl]piperidin-1-yl}-1H-pyrazolo[3,4-b]pyridine-6-carboxamide] | 440.55% | 61.1 nM | 268.45% | 141 nM |  | 43 nM |  |  |  |  |  | 
CC(C)Oc1nn(C2CCCCC2)c2nc(C(=O)NS(C)(=O)=O)cc(-c3ccc(CN4CC(N(C)C)C4)cc3)c12 [Compound 633, 1-cyclohexyl-4-(4-{[3-(dimethylamino)azetidin-1-yl]methyl}phenyl)-N-(methanesulfonyl)-3-[(propan-2-yl)oxy]-1H-pyrazolo[3,4-b]pyridine-6-carboxamide] | 400.44% | 207 nM | 180.46% | 345 nM |  | 204 nM |  |  |  |  |  | 
CN(C)S(=O)(=O)NC(=O)c1cc(N2CCC(N3CCC(C#N)C3)CC2)c2c(C3CCC3)nn(-c3ccc(F)cc3)c2n1 (centres unmarked) [Compound 561, 4-[4-(3-cyanopyrrolidin-1-yl)piperidin-1-yl]-3-cyclobutyl-N-(dimethylsulfamoyl)-1-(4-fluorophenyl)-1H-pyrazolo[3,4-b]pyridine-6-carboxamide] | 509.4% | 43 nM | 311.6% | 107 nM | 620% |  |  |  |  |  |  | 
CS(=O)(=O)NC(=O)c1cc(-c2ccc(N3CCC(C#N)CC3)nc2)c2c(C3CCC3)nn(-c3ccnc(N4CCOCC4)c3)c2n1 [Compound 201, 4-[6-(4-cyanopiperidin-1-yl)pyridin-3-yl]-3-cyclobutyl-N-(methanesulfonyl)-1-[2-(morpholin-4-yl)pyridin-4-yl]-1H-pyrazolo[3,4-b]pyridine-6-carboxamide] | 379.9% | 292 nM | 200.8% | 402 nM | 250% | < 300 nM |  |  |  |  |  | 
CS(=O)(=O)NC(=O)c1cc(N2CCC(CCN3CCOCC3)CC2)c2c(C3CCC3)nn(-c3ccccc3)c2n1 [Compound 331, 3-cyclobutyl-N-(methanesulfonyl)-4-{4-[2-(morpholin-4-yl)ethyl]piperidin-1-yl}-1-phenyl-1H-pyrazolo[3,4-b]pyridine-6-carboxamide] | 546.05% |  | 347.15% |  |  |  | 38.2 nM | 136 nM | 10 nM |  |  | 
COCCS(=O)(=O)NC(=O)c1cc(N2CCC(CCN3CCOCC3)CC2)c2c(C3CCC3)nn(-c3ccc(F)cc3)c2n1 [Compound 415, 3-cyclobutyl-1-(4-fluorophenyl)-N-(2-methoxyethanesulfonyl)-4-{4-[2-(morpholin-4-yl)ethyl]piperidin-1-yl}-1H-pyrazolo[3,4-b]pyridine-6-carboxamide] | 598% | 69.3 nM | 365.4% | 165 nM | 196.1812% | 28.4 nM |  |  |  |  |  | 
COCC1CN(c2cc(C(=O)NS(C)(=O)=O)nc3c2c(C2CCC2)nn3-c2ccccc2)C1 [Compound 193, 3-cyclobutyl-N-(methanesulfonyl)-4-[3-(methoxymethyl)azetidin-1-yl]-1-phenyl-1H-pyrazolo[3,4-b]pyridine-6-carboxamide] | 341.37% | 589 nM | 175.23% | 1070 nM | 317.57% |  |  |  |  |  |  | 
CC(C)Oc1cc(-n2nc(C3CCC3)c3c(N4CCC(N5CCOCC5)CC4)cc(C(=O)NS(C)(=O)=O)nc32)ccn1 [Compound 530, 3-cyclobutyl-N-(methanesulfonyl)-4-[4-(morpholin-4-yl)piperidin-1-yl]-1-{2-[(propan-2-yl)oxy]pyridin-4-yl}-1H-pyrazolo[3,4-b]pyridine-6-carboxamide] | 464.6% | 23 nM | 323.1% | 54.4 nM | 326.6667% |  |  |  |  |  |  | 
COCCN(CCOC)c1ccc(-c2cc(C(=O)NS(C)(=O)=O)nc3c2c(C(C)C)nn3C2CCCCC2)cn1 [Compound 121, 4-{6-[bis(2-methoxyethyl)amino]pyridin-3-yl}-1-cyclohexyl-N-(methanesulfonyl)-3-(propan-2-yl)-1H-pyrazolo[3,4-b]pyridine-6-carboxamide] | 368.6% | 282 nM | 159.13% | 653 nM |  |  |  |  |  | 74 nM | 206% | 
O=C(NS(=O)(=O)C1CCOC1)c1cc(N2CCC(CN3CCOCC3)CC2)c2c(C3CCC3)nn(-c3ccc(F)cc3)c2n1 (centres unmarked) [Compound 495, 3-cyclobutyl-1-(4-fluorophenyl)-4-{4-[(morpholin-4-yl)methyl]piperidin-1-yl}-N-(oxolane-3-sulfonyl)-1H-pyrazolo[3,4-b]pyridine-6-carboxamide] | 469.08% | 66.2 nM | 242.05% | 217 nM |  |  |  |  |  |  |  | 262.4635%
CS(=O)(=O)NC(=O)c1cc(N2CCC(OC3CCCCC3)CC2)c2c(C3CCC3)nn(-c3ccccc3)c2n1 [Compound 229, 3-cyclobutyl-4-[4-(cyclohexyloxy)piperidin-1-yl]-N-(methanesulfonyl)-1-phenyl-1H-pyrazolo[3,4-b]pyridine-6-carboxamide] | 418.65% | 366 nM | 174.2% | 414 nM | 430% | 20 nM |  |  |  |  |  | 
CC(C)c1nn(C2CCCCC2)c2nc(C(=O)NS(C)(=O)=O)cc(-c3cnc(N4CCC(C#N)CC4)nc3)c12 [Compound 119, 4-[2-(4-cyanopiperidin-1-yl)pyrimidin-5-yl]-1-cyclohexyl-N-(methanesulfonyl)-3-(propan-2-yl)-1H-pyrazolo[3,4-b]pyridine-6-carboxamide] | 389.93% | 331 nM | 188.53% | 520 nM |  |  |  |  |  | > 1000 nM | 157% | 
CC(C)Oc1nn(C2CCCCC2)c2nc(C(=O)NS(C)(=O)=O)cc(-c3ccc(CN4CCOCC4)cc3)c12 [Compound 404, 1-cyclohexyl-N-(methanesulfonyl)-4-{4-[(morpholin-4-yl)methyl]phenyl}-3-[(propan-2-yl)oxy]-1H-pyrazolo[3,4-b]pyridine-6-carboxamide] | 370% | 126 nM | 181.2% | 186 nM | 433.3333% |  |  |  |  |  |  | 
CC(C)c1nn(-c2cccc(N(C)C)c2)c2nc(C(=O)NS(C)(=O)=O)cc(N3CCC(C#N)CC3)c12 [Compound 160, 4-(4-cyanopiperidin-1-yl)-1-[3-(dimethylamino)phenyl]-N-(methanesulfonyl)-3-(propan-2-yl)-1H-pyrazolo[3,4-b]pyridine-6-carboxamide] | 490.4% | 202 nM | 285.57% | 309 nM | 190% | 160 nM |  |  |  |  |  | 
CN1CCN(S(=O)(=O)NC(=O)c2cc(N3CCC(N4CCOCC4)CC3)c3c(C4CCC4)nn(-c4ccc(F)cc4)c3n2)CC1 [Compound 624, 3-cyclobutyl-1-(4-fluorophenyl)-N-(4-methylpiperazine-1-sulfonyl)-4-[4-(morpholin-4-yl)piperidin-1-yl]-1H-pyrazolo[3,4-b]pyridine-6-carboxamide] | 274.15% | 549 nM | 100.59% | 1200 nM |  |  |  |  |  |  |  | 310%
CC(C)c1nn(C2CCCCC2)c2nc(C(=O)NS(C)(=O)=O)cc(-c3ccc(N4CCC(C#N)CC4)cc3)c12 [Compound 80, 4-[4-(4-cyanopiperidin-1-yl)phenyl]-1-cyclohexyl-N-(methanesulfonyl)-3-(propan-2-yl)-1H-pyrazolo[3,4-b]pyridine-6-carboxamide] | 457.5% | 389 nM | 258.38% | 436 nM |  |  |  |  |  | 19.3 nM | 250% | 
